The subject of this assay is CEM cells HIV-1 protection, formazan growth assay. Put plainly: NCI AIDS Antiviral Assay. To be noted: for IC50: measured here: growth of uninfected CEM cells. The protocol: The ability of compounds to protect human CEM cells from HIV-1 infection is measured as a screen for new compounds capable of inhibiting the HIV virus. Five concentrations of drug were tested on uninfected and infected cells and cell growth was measured using a soluble formazan assay. […] Compounds that provided at least 50% protection were retested. Compounds that provided at least 50% protection on retest were listed as moderately active. Compounds that reproducibly provided 100% protection were listed as confirmed active. […] Note that the inability to provide protection could be due to toxicity.

Structures are written as SMILES. Active and inactive are the calls of the source.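 How the source made its calls: active means compounds giving half or more protection of infected cells from virus-caused growth loss, again on retest; inactive means the rest.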

Usually EC50 stands for the midpoint of the concentration-response curve. The term IC50 denotes the point on the concentration scale where inhibition reaches its midpoint. Lower therefore signals greater potency in that assay.

Turning to `C=CCN1C(=O)CS/C1=N\NC(=O)Cc1nc2ccccc2[nH]1`, the EC50 was > 275 µM and the IC50 is > 275 µM. As to `O=[N+]([O-])c1cccnc1NCC1(CO)CCCC1`, the EC50 is > 200 µM and the IC50 came to 46.8 µM.

Regarding `COc1cc(C(=O)C2CC3(CCC2(O)c2cc(OC)c(OC)c(OC)c2)CC(=O)Nc2ccccc2C3=O)cc(OC)c1OC` (stereo not given), the EC50 was > 200 µM and the IC50 is > 200 µM. As to `N=C(N)SCc1ccc2c(c1)S(=O)(=O)c1ccccc1O2`, the EC50 is > 200 µM and the IC50 worked out at 13.2 µM. In the same order, the values of `CN1CCc2sccc2C(c2ccccc2)O1` (stereo not given) are > 708 µM and 275 µM.

As to `N#CC12CCCC(=O)N1c1ccccc1S2` (stereo not given), the EC50 was > 195 µM and the IC50 was found to be 105 µM.

With `CN1CCOC(c2ccc(Cl)cc2)O1` (stereo not given), the outcome was inactive. In the case of `O=[N+]([O-])c1ccc(-n2nnc(C3=NCCN3)c2-c2ccc(Cl)cc2)cc1`, the EC50 is > 135 µM and the IC50 is > 135 µM. For `O=C1CC(CC(=O)C2CCCCC2=O)CC(=O)N1` (stereo not given), the outcome was inactive. On to `O=C(O)c1nc2ccc(C(F)(F)F)cc2nc1NCc1ccc(F)cc1`, for which the EC50 was > 200 µM and the IC50 was 15.8 µM.

In the case of `CCCCN(CCCC)/N=C/c1c2c(O)c3c(O)c(C)c4c(c3c1O)C(=O)C(C)(O/C=C/C(OC)C(C)C(OC(C)=O)C(C)C(O)C(C)C(O)C(C)/C=C/C=C(C)C(=O)N2)O4` (stereo not given), the EC50 is > 200 µM and the IC50 amounted to 9.12 µM. Consider `COc1ccc2c(CN3CCCCC3CO)cc3cc(OC)c(OC)cc3c2c1` (stereo not given), for which the outcome was inactive.

For `CCSC1=N/C(=C\c2ccco2)C(NN)=N1`, the EC50 was > 50.1 µM and the IC50 is > 50.1 µM.

Consider `NC(=O)c1cc(O)c(O)c(O)c1`, for which the EC50 was > 200 µM and the IC50 was 17 µM.

Turning to `COC(=O)/C(C#N)=C1\N=NNN1c1ccc(OC)cc1`, the outcome was inactive. Take `CC(=O)OCC1OC(n2c(=S)n(-c3ccccc3)c(=O)c3ccccc32)C(OC(C)=O)C(OC(C)=O)C1OC(C)=O` (stereo not given): the EC50 was > 32.4 µM and the IC50 is > 32.4 µM. Regarding `COC(=O)C=Cc1ccc2nncnc2c1` (mixture of isomers), the EC50 is > 200 µM and the IC50 was 44.7 µM.

`CCOC(=O)c1cc(-c2ccccc2)c(=O)c(OC)nc1-c1ccccc1`: the EC50 was > 200 µM and the half-maximal inhibitory concentration (IC50) turned out to be 74.1 µM. In the same order, the values of `O=C(CCc1ccc(O)cc1)NCCc1cccc(OCc2ccccc2)c1` are > 200 µM and 26.3 µM. In the case of `CC(=O)/C(=C/N1CC(=O)NC1=S)C(=O)Nc1ccccc1`, the EC50 was > 200 µM and the IC50 is > 200 µM. Regarding `Cc1nc2ccc(NC3OCC(O)C(O)C3O)cc2c(=O)n1-c1ccccc1` (stereo not given), the EC50 is > 200 µM and the IC50 is 115 µM. On to `O=C(O)CNS(=O)(=O)c1ccc(NC(=O)c2ccc([N+](=O)[O-])cc2)cc1`, for which the result was inactive. On the same count and under the same terms, to `CCCCCCCCCCCCC1=C(OC)C(=O)c2ccc(C)nc2C1=O` belongs “inactive”. For the compound `CC1=CCC(=O)[C@]2(C)C(CC(=O)O)[C@]3(C)C4=C(C)C(c5ccoc5)C[C@@H]4O[C@@H]3[C@H](O)[C@@H]12` (stereo not given in full), the EC50 is > 550 µM and the IC50 was > 550 µM. As for `COc1ccc(C(=O)O)c2c(=O)c3cccnc3[nH]c12`, the result was inactive. For `CC(C)=CCNc1ncnc2c1ncn2CCC#N`, the EC50 was > 200 µM and the IC50 is > 200 µM. In the case of `Cc1cc(NS(=O)(=O)c2ccc(Nc3c4ccccc4nc4c(C(=O)N5CCN(CCO)CC5)cccc34)cc2)no1`, the EC50 was > 38 µM and the half-inhibitory concentration (IC50) is > 38 µM. As to `CS(=O)(=O)c1nc2nc[nH]c2c(=O)[nH]1`, the EC50 was > 200 µM and the IC50 is > 200 µM.

For the compound `N#CC(NNC(=O)c1ccccc1O)c1c(O)ccc2ccccc12` (stereo not given), the EC50 was > 40.7 µM and the IC50 amounted to 3.8 µM.

Take `COC(=O)c1c2c(cc3c1CCC3)CCC2`: the EC50 was > 200 µM and the 50% inhibitory concentration (IC50) was > 200 µM.

For the compound `COc1c(Cl)cc(Cl)c(CCCCCCCC(=O)O)c1Cl`, the EC50 is > 100 µM and the IC50 is > 100 µM. With `Cc1ccc(Nc2nc(NS(=O)(=O)c3cc(C)c(Cl)cc3S)n[nH]2)cc1`, the EC50 is > 191 µM and the IC50 was found to be 178 µM. The like results for `CCOc1ccc(NC(=O)C(=O)C(/C(=N/N)C(=O)OC)c2nc3ccc([N+](=O)[O-])cc3[nH]c2=O)cc1` (stereo not given) were, in that order, > 14.5 µM and > 14.5 µM.

Turning to `CCOC(=O)c1c2c(n3ccccc13)C(=O)C(C)(C(=O)OCC)S2` (stereo not given), the outcome was active.

As for `Cc1cc(=O)cc2sc3cc(Cl)ccc3nc1-2`, the EC50 was > 10.5 µM and the IC50 was > 10.5 µM. On to `CC(=O)Oc1c(Br)ccc2cc(C(Br)Br)c(C(=O)c3ccccc3)nc12`, for which the EC50 was > 5.01 µM and the 50% inhibitory concentration (IC50) is > 5.01 µM. For `O=C1CC2COc3ccc(O)cc3C2=NN1c1ccccc1` (stereo not given), the EC50 was > 324 µM and the IC50 is 110 µM. Turning to `C=CCN1C(=O)C(=O)N(CC=C)C(=O)C1=O`, the result was inactive. For the compound `CC1CC(C)c2c(O)c3c(c(O)c2N1)C(=O)c1ccccc1C3=O` (stereo not given), the EC50 was > 16.2 µM and the IC50 is 8.71 µM.

Consider `CC(C)=CC[P+](CCC[P+](CC=C(C)C)(c1ccccc1)c1ccccc1)(c1ccccc1)c1ccccc1`, for which the EC50 was > 57.5 µM and the IC50 was > 57.5 µM. Turning to `O=c1[nH]c(Nc2ccc(Cl)c(C(F)(F)F)c2)nc2nc[nH]c12`, the EC50 was > 200 µM and the IC50 was 89.1 µM. `CC(C)(C)[Si](C)(C)OCC1OC(n2cc(I)c(=O)[nH]c2=O)C(O[Si](C)(C)C(C)(C)C)C1O[Si](C)(C)C(C)(C)C` (stereo not given): the EC50 was > 200 µM and the IC50 amounted to 17.4 µM. In the same order, the values of `CC(=N\N)/C(C)=N/N=C(C)/C(C)=N/N=C(C)/C(C)=N/N` are > 200 µM and 178 µM. For `CC(C)CCC[C@@H](C)C1CCC2[C@@H]3CC=C4C[C@@H](OS(=O)(=O)O)CC[C@]4(C)C3CC[C@@]21C` (stereo not given in full), the outcome was active. Still for that read-out and setting: to `O=S(O)CCCSSSCCCS(=O)O` belongs “inactive”. In the case of `CC1(C)OC2OC(C(COC(=O)c3ccccc3)OC(=O)c3ccccc3)C(F)C2O1` (stereo not given), the EC50 was > 43.7 µM and the half-maximal inhibitory concentration (IC50) was > 43.7 µM.

In the case of `O/N=C1\CCc2nonc2\C1=N/Nc1ccccc1`, the EC50 is > 200 µM and the IC50 was > 200 µM.

As to `CN(C)N=Nc1cccc(C(N)=O)c1`, the EC50 was > 646 µM and the IC50 is 145 µM. Turning to `c1ccc(N=C2C(=Nc3ccccc3)N(C3CCCCC3)C(=NC3CCCCC3)N2c2ccccc2)cc1`, the EC50 is > 200 µM and the IC50 was > 200 µM. Regarding `C/C(O)=C(\N=O)C(=O)NCCc1ccccc1`, the EC50 is > 288 µM and the IC50 was > 288 µM.

As for `C1CSCCSCCCSC2CCCCC2SC1` (stereo not given), the EC50 was > 22.4 µM and the concentration for half-maximal inhibition (IC50) is > 22.4 µM. In the case of `Clc1ccc(COC(Cn2ccnc2)c2ccc(Cl)cc2Cl)c(Cl)c1` (stereo not given), the EC50 is > 200 µM and the IC50 came out at 14.1 µM. Take `N#CC(NC12CC3CC(CC(C3)C1)C2)c1ccccc1` (stereo not given): the result was inactive.

On to `CC1N=C(c2ccccc2)c2cc(Cl)ccc2NC1=O` (stereo not given), for which the EC50 was > 18.2 µM and the IC50 was > 18.2 µM. For the compound `NNC(=O)c1c/c(=N\NC(=O)CC(=O)Nc2ccccc2Cl)c2ccccc2o1`, the EC50 was > 1.74 µM and the half-inhibitory concentration (IC50) was > 1.74 µM.

`CCOC(=O)C1=C(O)c2c(OC)ccc(OC)c2C(=O)C1=O`: the EC50 was > 427 µM and the IC50 was > 427 µM. On to `Cc1cc([N+](=O)[O-])c(=O)[nH]c1C`, for which the EC50 was > 1480 µM and the IC50 is 832 µM. In the same order, the values of `CCOC(C[C@H](O[Si](C)(C)C(C)(C)C)[C@H]1COC(=S)S1)OCC` are > 200 µM and 155 µM.

In the case of `CC(=O)Oc1ccc2c(C)cc(=O)oc2c1`, the EC50 is > 200 µM and the IC50 was determined as 170 µM. `O=C1CCCCCCCCCCC1CN(Cc1ccccc1)Cc1ccccc1` (stereo not given): the outcome was inactive. As for `O=C(CCN1CCCCC1CO)Nc1ccc2c(c1)C(=O)c1ccc(NC(=O)CCN3CCCCC3CO)cc1C2=O` (stereo not given), the EC50 is > 200 µM and the half-maximal inhibitory concentration (IC50) amounted to 3.16 µM.

As to `CC1(C)CCC2(C)N(c3ccccc3)C(=O)ON12` (stereo not given), the EC50 is > 200 µM and the IC50 is > 200 µM. Regarding `Cc1c(Cl)cccc1NC(=O)CC1C(=O)Nc2ccccc2S1(=O)=O` (stereo not given), the EC50 was > 5.25 µM and the IC50 is > 5.25 µM. With `O=C(/C(=N/Nc1ccccc1)c1ccc([N+](=O)[O-])cc1)c1ccc([N+](=O)[O-])cc1`, the outcome was inactive.

For `CCC(O)(COC(N)=O)c1ccccc1` (stereo not given), the EC50 is > 200 µM and the IC50 is > 200 µM. On to `Cc1cc(=O)n2c3c(c4c(cc13)c(CO)cc(=O)n4C)OC2`, for which the result was inactive. With `NC(=O)/C(=N\NC(=O)c1cc2ccccc2cc1O)C1C(=O)N(c2ccccc2)N=C1N` (stereo not given), the EC50 is > 219 µM and the half-inhibitory concentration (IC50) turned out to be 13.8 µM. The like results for `O=S1ON=C(C2CCC(C3=NOS(=O)O3)C2)O1` (stereo not given) were, in that order, > 200 µM and > 200 µM. In the same order, the values of `CC=C=C(C)CN` are > 447 µM and > 447 µM. On to `COC(=O)/C=C1/C2CC3CC(C2)C(O)C1C3` (stereo not given), for which the result was inactive. As to `CCCCCCCCCCCCSCC12c3ccccc3C(c3ccccc31)C(C(=O)O)C2C(=O)O` (stereo not given), the EC50 is > 200 µM and the concentration for half-maximal inhibition (IC50) amounted to 22.4 µM. `COc1c(Sc2ccccc2)cc(Sc2ccccc2)c2cccnc12`: the result was inactive.

For the compound `CCN1C(=O)/C(=C\c2coc3ccccc3c2=O)SC1=S`, the EC50 was > 0.813 µM and the IC50 is > 0.813 µM.

For the compound `COc1c(CC(C)=O)ccc2c1C(=O)c1ccc(C=O)c(OC(C)=O)c1C2=O`, the outcome was inactive.

The values are drawn from PubChem BioAssay AID179 (DTP/NCI, 2004).
